Values quoted from earlier work as cited in patent publication US10828380B2, “Conjugate of polysarcosine and NIR contrast agent for photoacoustic imaging” (CANON KABUSHIKI KAISHA, priority 2015, dated 2020).

SMILES: CC1(C)C(/C=C/C=C/C=C/C=C2/N(CCCCS(=O)(=O)[O-])c3ccc4ccccc4c3C2(C)C)=[N+](CCCCS(=O)(=O)[O-])c2ccc3ccccc3c21.[Na+] [ICG, indocyanine green]
- half-life in blood: about several minutes
